Test results reported in ChEMBL document CHEMBL1142398, “Chemical stability of the peroxide bond enables diversified synthesis of potent tetraoxane antimalarials” (J Med Chem, 2008).

Columns and labels:
Plasmodium berghei [1] = experiment: Antimalarial activity against Plasmodium berghei KBG173 infected CD1 mice (Mus musculus) on subcutaneous dose after 3-5 days; assay type: functional
Plasmodium berghei [2] = experiment: Antimalarial activity against Plasmodium berghei KBG173 infected CD1 mice (Mus musculus) at 300 mg/kg/day subcutaneous dose as survival time after 3-5 days; assay type: functional
Plasmodium berghei [3] = experiment: Antimalarial activity against Plasmodium berghei KBG173 infected CD1 mice (Mus musculus) at 150 mg/kg/day subcutaneous dose as survival time after 3-5 days; assay type: functional
Plasmodium berghei [4] = experiment: Antimalarial activity against Plasmodium berghei KBG173 infected CD1 mice (Mus musculus) at 37.5 mg/kg/day subcutaneous dose as survival time after 3-5 days; assay type: functional
Plasmodium berghei [5] = experiment: Antimalarial activity against Plasmodium berghei KBG173 infected CD1 mice (Mus musculus) at 9.3 mg/kg/day subcutaneous dose as survival time after 3-5 days; assay type: functional
Plasmodium falciparum [6] = experiment: microbe, parasite or virus in culture; conditions: D6
Description: Antimalarial activity against Plasmodium falciparum D6

Plasmodium falciparum [7] = experiment: microbe, parasite or virus in culture; conditions: W2
Description: Antimalarial activity against Plasmodium falciparum W2

Plasmodium falciparum [8] = experiment: microbe, parasite or virus in culture; conditions: TM91C235
Description: Antimalarial activity against multidrug-resistant Plasmodium falciparum TM91C235

[9] = Metabolic stability assessed as half life in human liver microsomes; assay type: ADME, Microsome
[10] = Metabolic stability assessed as half life in mouse liver microsomes; assay type: ADME, Microsome
Plasmodium berghei [11] = experiment: Antimalarial activity against Plasmodium berghei KBG173 infected CD1 mice (Mus musculus) at 320 mg/kg/day peroral dose as survival time after 3-5 days; assay type: functional; conditions: route oral
Plasmodium berghei [12] = experiment: Antimalarial activity against Plasmodium berghei KBG173 infected CD1 mice (Mus musculus) at 80 mg/kg/day peroral dose as survival time after 3-5 days; assay type: functional; conditions: route oral
Plasmodium berghei [13] = experiment: Antimalarial activity against Plasmodium berghei KBG173 infected CD1 mice (Mus musculus) at 20 mg/kg/day peroral dose as survival time after 3-5 days; assay type: functional; conditions: route oral
[14] = Antiproliferative activity against human HL60(TB) cells after 48 hrs; assay type: functional, HL-60(TB); conditions: HL-60, 48 h
MOLT-4 = experiment: Antiproliferative activity against human MOLT4 cells after 48 hrs; assay type: functional; conditions: MOLT-4, 48 h
SR = experiment: Antiproliferative activity against human SR cells after 48 hrs; assay type: functional
EKVX = experiment: Antiproliferative activity against human EKVX cells after 48 hrs; assay type: functional
HOP-92 = experiment: Antiproliferative activity against human HOP92 cells after 48 hrs; assay type: functional; conditions: HOP-92, 48 h
NCI-H460 = experiment: Antiproliferative activity against human NCI-H460 cells after 48 hrs; assay type: functional; conditions: NCI-H460, 48 h
SF-295 = experiment: Antiproliferative activity against human SF295 cells after 48 hrs; assay type: functional; conditions: SF-295, 48 h
SF-539 = experiment: Antiproliferative activity against human SF539 cells after 48 hrs; assay type: functional; conditions: SF-539, 48 h
U-251 = experiment: Antiproliferative activity against human U251 cells after 48 hrs; assay type: functional; conditions: U-251, 48 h
LOX IMVI = experiment: Antiproliferative activity against human LOXIMVI cells after 48 hrs; assay type: functional
SK-MEL-2 = experiment: Antiproliferative activity against human SKMEL2 cells after 48 hrs; assay type: functional; conditions: SK-MEL-2, 48 h
IGROV-1 = experiment: Antiproliferative activity against human IGROV1 cells after 48 hrs; assay type: functional; conditions: IGROV-1, 48 h
786-0 = experiment: Antiproliferative activity against human 786-0 cells after 48 hrs; assay type: functional; conditions: 786-0, 48 h
UO-31 = experiment: Antiproliferative activity against human UO31 cells after 48 hrs; assay type: functional; conditions: UO-31, 48 h
PC-3 = experiment: Antiproliferative activity against human PC3 cells after 48 hrs; assay type: functional; conditions: PC-3, 48 h
DU-145 = experiment: Antiproliferative activity against human DU145 cells after 48 hrs; assay type: functional; conditions: DU-145, 48 h
NCI/ADR-RES = experiment: Antiproliferative activity against human NCI/ADR-RES cells after 48 hrs; assay type: functional
T47D = experiment: Antiproliferative activity against human T47D cells after 48 hrs; assay type: functional
CCRF-CEM = experiment: Antiproliferative activity against human CCRF-CEM cells after 48 hrs; assay type: functional
[15] = read-out: LC50 (the source's name)

NCC1CCC2(CC1)OOC1(CCCCC1)OO2
MCD (Plasmodium berghei [1]): <=37.5 mg/kg/day
Survival (Plasmodium berghei [2]): >31 days
Survival (Plasmodium berghei [3]): >31 days
Survival (Plasmodium berghei [4]): 24.6 days
Survival (Plasmodium berghei [5]): 16.6 days
IC50 (Plasmodium falciparum [6]): 12.8 nM
IC90 (Plasmodium falciparum [6]): 24.1 nM
IC50 (Plasmodium falciparum [7]): 7.79 nM
IC90 (Plasmodium falciparum [7]): 16 nM
IC50 (Plasmodium falciparum [8]): 19.8 nM
IC90 (Plasmodium falciparum [8]): 29 nM

CN(C)CCNC(=O)C1CCC2(CC1)OOC1(CCCCC1)OO2
half-life [9]: > 60 min
half-life [10]: > 60 min
Survival (Plasmodium berghei [11]): 17.4 days
Survival (Plasmodium berghei [12]): 7.6 days
Survival (Plasmodium berghei [13]): 7.2 days
IC50 (Plasmodium falciparum [6]): 11.2 nM
IC90 (Plasmodium falciparum [6]): 15.1 nM
IC50 (Plasmodium falciparum [7]): 9.72 nM
IC90 (Plasmodium falciparum [7]): 17.9 nM
IC50 (Plasmodium falciparum [8]): 7.24 nM
IC90 (Plasmodium falciparum [8]): 12.8 nM

C[C@H](CCCO)[C@H]1CC[C@H]2[C@@H]3[C@H](O)C[C@@H]4CC5(CC[C@]4(C)[C@H]3C[C@H](O)[C@]12C)OOC1(CCCCC1)OO5
GI50 [14]: 150 nM
TGI [14]: 310 nM
CC50 [14, 15]: 620 nM
GI50 (MOLT-4): 180 nM
TGI (MOLT-4): 410 nM
CC50 (MOLT-4; [15]): 960 nM
GI50 (SR): 160 nM
TGI (SR): 340 nM
CC50 (SR; [15]): 720 nM
GI50 (EKVX): 140 nM
TGI (EKVX): 310 nM
CC50 (EKVX; [15]): 650 nM
GI50 (HOP-92): 140 nM
TGI (HOP-92): 320 nM
CC50 (HOP-92; [15]): 730 nM
GI50 (NCI-H460): 240 nM
TGI (NCI-H460): 620 nM
CC50 (NCI-H460; [15]): 2680 nM
GI50 (SF-295): 170 nM
TGI (SF-295): 330 nM
CC50 (SF-295; [15]): 660 nM
GI50 (SF-539): 170 nM
TGI (SF-539): 320 nM
CC50 (SF-539; [15]): 590 nM
GI50 (U-251): 210 nM
TGI (U-251): 460 nM
CC50 (U-251; [15]): 980 nM
GI50 (LOX IMVI): 20 nM
TGI (LOX IMVI): 30 nM
CC50 (LOX IMVI; [15]): 60 nM
GI50 (SK-MEL-2): 200 nM
TGI (SK-MEL-2): 390 nM
CC50 (SK-MEL-2; [15]): 730 nM
GI50 (IGROV-1): < 10 nM
TGI (IGROV-1): 10 nM
CC50 (IGROV-1; [15]): 60 nM
GI50 (786-0): 230 nM
TGI (786-0): 540 nM
CC50 (786-0; [15]): 2010 nM
GI50 (UO-31): 40 nM
TGI (UO-31): 170 nM
CC50 (UO-31; [15]): 610 nM
GI50 (PC-3): 290 nM
TGI (PC-3): 990 nM
CC50 (PC-3; [15]): 3.41 µM
GI50 (DU-145): 110 nM
TGI (DU-145): 230 nM
CC50 (DU-145; [15]): 480 nM
GI50 (NCI/ADR-RES): 250 nM
TGI (NCI/ADR-RES): 590 nM
CC50 (NCI/ADR-RES; [15]): 4.27 µM
GI50 (T47D): 330 nM
TGI (T47D): 930 nM
CC50 (T47D; [15]): 5.3 µM
GI50 (CCRF-CEM): 100 nM
TGI (CCRF-CEM): 240 nM
CC50 (CCRF-CEM; [15]): 560 nM
IC50 (Plasmodium falciparum [6]): 130 nM
IC90 (Plasmodium falciparum [6]): 623 nM
IC50 (Plasmodium falciparum [7]): 109 nM
IC90 (Plasmodium falciparum [7]): 298 nM
IC50 (Plasmodium falciparum [8]): 166 nM
IC90 (Plasmodium falciparum [8]): 340 nM

C1CCC(NCC2CCC3(CC2)OOC2(CCCCC2)OO3)CC1
MCD (Plasmodium berghei [1]): <=37.5 mg/kg/day
half-life [9]: 15.9 min
half-life [10]: 43.9 min
Survival (Plasmodium berghei [2]): >31 days
Survival (Plasmodium berghei [3]): 29 days
Survival (Plasmodium berghei [4]): 22.6 days
Survival (Plasmodium berghei [5]): 13.4 days
IC50 (Plasmodium falciparum [6]): 11.2 nM
IC90 (Plasmodium falciparum [6]): 14 nM
IC50 (Plasmodium falciparum [7]): 6.17 nM
IC90 (Plasmodium falciparum [7]): 17.7 nM
IC50 (Plasmodium falciparum [8]): 10.8 nM
IC90 (Plasmodium falciparum [8]): 13.9 nM
